Test results taken from publication PMC10660337, “Mutate and Conjugate: A Method to Enable Rapid In-Cell Target Validation” (ACS Chemical Biology, 2023).
Values joined by “and” are separate entries in the source; they are usually repeats but may differ in a detail not shown here. Equal entries are not always repeated. Blank lines part the entries; values can stand above or below the molecule they belong to.

What was measured:
[1] = biological target: T1, BRD4(1)^L94C (Homo sapiens, UniProt O60885, L94C); assay: Protein LCMS labeling assay 2 (diverse reactive fragment screen); assay type: binding; conditions: 1 μM protein, 4 °C, 24 h
T1 construct: Characterization of His6-BRD4(1)L94C; made in house; host or cells: E. coli BL21 (DE3)
Protocol: To investigate whether screening of an unbiased set of covalent fragments could identify ligands for BRD4(1)^L94C, we evaluated 250 previously published cysteine-reactive compounds, comprising 138 acrylamide- and 112 chloroacetamide-functionalized reactive fragments with molecular weights ranging from 152 to 300 Da.[44] Due to the higher throughput of this screening assay, the conditions varied compared to “labeling assay 1”. In this case, 1 μM BRD4(1)^L94C was incubated with either a chloroacetamide fragment (50 μM) or an acrylamide fragment (200 μM) at 4 °C for 24 h (referred to as “labeling assay 2”). Samples were then analyzed using protein LCMS, where a positive hit was classified as a single protein labeling event with a mass shift corresponding to the mass of the fragment of ±2 Da and a labeled peak of >20% intensity. Of the 250 diverse reactive compounds screened against BRD4(1)^L94C, only one chloroacetamide and one acrylamide fragment were classified as hits (Figures 5A and S10). […]
Experiments were performed in a protein LCMS assay buffer, with 10 µM protein, and 50 µM of the desired compound with a final DMSO concentration of 0.5% (Table S16). […] Data was analysed and processed using MassLynx. […] Covalent labeling was calculated using intensities of the unlabeled and labeled protein (Equation 1). […]

[2] = biological target: T1, BRD4(1)^L94C; assay: Protein LCMS labeling assay 1; assay type: binding; conditions: 50 μM compound, 10 µM protein, 37 °C, mean of three ± s.e.m., ND = not detectable
Protocol: (§1) The resulting library of 22 fragments was screened for BRD4(1)^L94C binding at a concentration of 50 μM using a protein LCMS assay (referred to as “labeling assay 1”). […] To assess the selectivity of the fragments for the labeling of C94, hits were also screened against BRD4(1)^WT under the same conditions. […] The acrylamide-based fragment, 12, labeled 98% of BRD4(1)^L94C after 4 h. While 95% of the protein was labeled once, 3% of the protein was labeled twice (Figure 5D). […] Fragment 14, designed by appending a β-dimethylaminomethyl acrylamide to the structure of 12, led to 74% of singly labeled BRD4(1)^L94C after 4 h with no labeling of BRD4(1)^WT observed (Table 1 and Figure 5E). […] However, only 9.9% of labeled BRD4(1)^L94C was observed, substantially lower than the 56% labeling observed for the corresponding 3-methyl regioisomer 10 (Table 1). […]
(§2) Assays were performed in 1.5 mL Eppendorf tubes at 37 °C and gently shaken, unless otherwise stated.
(§3) Experiments were performed in a protein LCMS assay buffer, with 10 µM protein, and 50 µM of the desired compound with a final DMSO concentration of 0.5% (Table S16). Time points were taken at 0, 1 and 4 h, unless otherwise stated, where a 20 µL sample of the reaction mix was taken, diluted with 100 µL Milli-Q water, and flash frozen. Samples were thawed immediately prior to LCMS analysis on a Waters Xevo G2-S system (Waters) fitted with a ProSwift™ RP-2H PSDVB Reversed Phase HPLC Column (Thermofisher). Data was analysed and processed using MassLynx. The total ion chromatograms (TIC) were extracted (region containing protein) and the summed scans were deconvoluted (using MaxEnt). Covalent labeling was calculated using intensities of the unlabeled and labeled protein (Equation 1). Figures were made using GraphPad Prism 7.0.
(§4) Table S16. Buffer composition for protein LCMS.
(§5) Buffer Reagent Composition Amount per 1 L
(§6) Protein LCMS Assay Buffer HEPES 25 mM 6.0 g
(§7) Protein Labelling = Intensity of Labelled Peak × 100

[3] = biological target: T2, BRD4(1)^WT (Homo sapiens, UniProt O60885); assay: Protein LCMS labeling assay 1; assay type: binding; conditions: 50 μM compound, 10 µM protein, 37 °C, 4 h; mean of three ± s.e.m.; ND = not detectable
T2 construct: Characterization of His6-BRD4(1)WT; made in house; host or cells: E. coli BL21 (DE3)
Protocol: Before introducing a Cys mutant into the first bromodomain of BRD4 [BRD4(1)], we wanted to rule out the possibility that the native Cys residues C125 and C136 (Figures 2A and S1), would react with electrophilic fragments. To test this, we incubated two KAc-mimicking methylisoxazole-based reactive fragments (1 and 2, Figure 2C) with purified BRD4(1)^WT.
as §1, §2, §3, §4, §5, §6, §7

[4] = biological target: T1, BRD4(1)^L94C; assay: AlphaScreen H4_1–20(KAc)4 peptide displacement; assay type: binding; conditions: mean of three ± s.e.m.
Protocol: Under these conditions, all three fragments displaced the peptide from BRD4(1)^L94C, which is consistent with the fragments binding to BRD4(1)^L94C in the expected location (Table 2). […] The longer the mutant protein and electrophile are incubated together, the more time there is for a covalent interaction to occur. […]
(§8) Dose response AlphaScreen™
(§9) The peptide (Table S17) was supplied at >95% purity by GenScript and was stored as 1 mM stocks in […]
(§10) Table S17. Amino acid sequences of peptides used in AlphaScreen™.
(§11) Peptide Amino Acid Sequence […]
(§12) The assay buffer (Table S18, pH 7.6) was filtered through a 0.22 μm filter before use. The buffer is stored at 4 °C as a 5× solution without bovine serum albumin (BSA), which was added on the day of use. The compounds, proteins, and peptides were dispensed into a ProxiPlate-384 Plus (Perkin Elmer) using a Thermo-Fisher electronic multi-channel pipette. For the incubation steps, the plates were sealed, shaken for 10 seconds at 600 rpm on a plate oscillator, and incubated at room temperature in darkness for 30 min or 3.5 h. Ni2+ chelate acceptor and streptavidin donor beads were prepared as a mixture in a 1:300 dilution (0.007 mg/mL final assay concentration, added to the plates and incubated for a further 30 min at room temperature. Plates were read using a SynergyTM 2 MultiMode Microplate Reader using the inbuilt AlphaScreen™ 384 ProxiPlate function: excitation 680 nm, 0.18 sec; emission […]
(§13) Table S18. Composition of assay buffer used in AlphaScreen™ experiments, adjusted to pH 7.6 using an aqueous NaOH […]
(§14) Reagent Composition Mass (mg) for 50 mL
(§15) 50 mM DMSO stock solutions of the compounds were serially diluted, and dispensed into wells (5 μL).
(§16) The protein-peptide mixes (7 μL) for each combination were prepared following the specified final assay concentration (Table S19), and dispensed into wells. Assay beads (8 μL) were added to attain a final assay volume of 20 μL. Dose response curves were obtained for each compound in triplicate, with serial 1:2 dilutions. Data was processed by fitting a four-parameter equation (Equation 2) to calculate IC50 values using Prism software.
(§17) Table S19. Final assay concentrations of each peptide-protein combination.
(§18) Protein Peptide Protein FAC (nM) Peptide FAC (nM)
(§19) Response = Bottom + Top − Bottom

[5] = biological target: T2, BRD4(1)^WT; assay: AlphaScreen H4_1–20(KAc)4 peptide displacement; assay type: binding; conditions: 4 h incubation at RT; mean of three ± s.e.m.
Protocol: as §8, §9, §10, §11, §12, §13, §14, §15, §16, §17, §18, §19

[6] = biological target: T1, BRD4(1)^L94C; assay: Fluorescent labeling of purified protein (CuAAC with TAMRA-PEG3-azide, in-gel fluorescence); assay type: binding; conditions: 50 μM probe, 10 μM protein, 4 h, 37 °C, then CuAAC 1 h
Protocol: (§20) When 28, 29, 30, and 42 were incubated with either purified BRD4(1)^L94C or BRD4(1)^WT and subjected to a copper(I)-catalyzed alkyne–azide click reaction (CuAAC) reaction with the fluorescent TAMRA-PEG3-azide dye, all clickable probes labeled the mutant protein and could be visualized using fluorescence imaging of a gel (Figure 6).
Figure 6 Clickable probes 28, 29, 30, and 42 covalently label BRD4(1)^L94C and undergo a subsequent CuAAC reaction with TAMRA-PEG3 azide to fluorescently label the protein, as shown by in-gel fluorescence imaging. Compounds 28, 29, 30, 41, and 42 (50 μM) were incubated with purified BRD4(1)^L94C or BRD4(1)^WT (10 μM) for 4 h at 37 °C, followed by CuAAC reaction with TAMRA-PEG3 azide for 1 h and separation of components by SDS-PAGE. For all compounds other than 30, only labeling of BRD4(1)^L94C was observed. […]
Fluorescent labeling of purified proteins
Assays were performed in 1.5 mL Eppendorf tubes at 37 °C, and gently shaken, unless otherwise stated.
The desired click probe (50 µM) was incubated with protein (10 µM) in protein LCMS buffer for 4 h, after which TAMRA-PEG3-Azide (200 µM), TCEP·HCl (1 mM), TBTA (100 µM), and CuSO4 (1 mM) were added and incubated for a further 1 h at room temperature in the dark. A 25 µL sample of the […]
reaction mix was taken and 8 µL of Lamelli buffer added, and the samples denatured by heating at 95 °C for 10 min. Samples were separated by gel electrophoresis on NuPAGE™ 4–12%, Bis-Tris precast polyacrylamide gels (Thermofisher). Following electrophoresis, gels were stained for 15 min with InstantBlueTM Coomasie® stain (Abcam), destained, and imaged using Bio-rad molecular imager.
Bio-rad Image Lab 6.1 was used to process the data. […]
InstantBlueTM Coomasie® stain (Abcam), destained, and imaged using Bio-rad molecular imager. […]
MEM media. Cells were then harvested and lysed using the previously described protocol above. […]

[7] = biological target: T2, BRD4(1)^WT; assay: as above; assay type: binding; conditions: 50 μM probe, 10 μM protein, 4 h, 37 °C, then CuAAC 1 h
Protocol: as §20
Figure 6 Clickable probes 28, 29, 30, and 42 covalently label BRD4(1)^L94C and undergo a subsequent CuAAC reaction with TAMRA-PEG3 azide to fluorescently label the protein, as shown by in-gel fluorescence imaging. Compounds 28, 29, 30, 41, and 42 (50 μM) were incubated with purified BRD4(1)^L94C or BRD4(1)^WT (10 μM) for 4 h at 37 °C, followed by CuAAC reaction with TAMRA-PEG3 azide for 1 h and separation of components by SDS-PAGE. For all compounds other than 30, only labeling of BRD4(1)^L94C was observed.
as §15
The protein-peptide mixes (7 μL) for each combination were prepared following the specified final assay concentration (Table S19), and dispensed into wells. […]
Assays were performed in 1.5 mL Eppendorf tubes at room temperature, in the dark, and gently shaken, unless otherwise stated. […] Data was analysed and processed using MassLynx. […]
Gels were imaged for fluorescence using Bio-rad molecular imager and then stained for 15 min with […]

[8] = test system: BRD4(1); set-up: method as in PMID 36378954; conditions: cited from earlier work

Labeling of BRD4(1)^L94C, labeling assay 2 ([1]; chloroacetamide fragment 50 μM): 27%
SMILES: O=C(CCl)Nc1nc(-c2cccs2)cs1 [Compound 26]

Labeled Protein (%) L94C 1 h ([2]; 1 h): 17 ± 1.0%
Labeled Protein (%) L94C 4 h [2]: 61% and 61 ± 2.5%
Labeled Protein (%) WT 4 h [3]: no covalent binding
Labeling of BRD4(1)^L94C, labeling assay 2 ([1]; acrylamide fragment 200 μM): 89%
IC50 ([4]; IC50 (μM) L94C 1 h, 1 h incubation at RT): 15.5 ± 3.2 µM
IC50 ([4]; IC50 (μM) L94C 4 h, 4 h incubation at RT): 2.48 µM and 2.5 µM
IC50 [5]: > 100 µM
SMILES: C=CC(=O)Nc1ccc(N2CCCC2=O)c(OC)c1 [Compound 27]

Labeled Protein (%) L94C 4 h [2]: 2% and 2.0 ± 0.0%
Labeling of purified BRD4(1)^L94C, in-gel fluorescence [6]: no labeling
Labeling of purified BRD4(1)^WT, in-gel fluorescence [7]: no labeling
SMILES: C#CCN(C)C/C=C/C(=O)Nc1ccc(N2CCCC2=O)c(OC)c1 [Compound 41]

SMILES: Cc1noc(C)c1-c1ccccc1 [4-phenyl-3,5-dimethylisoxazole]
IC50 [8]: 50 µM
